Test results as given in patent publication US10995067B2, “Treatment of Fabry disease” (Academia Sinica, priority 2016, dated 2021).

Experiments:
[1] = target: T1, β-galactosidase from human lysate (lysed human lymphocytes) (Homo sapiens, UniProt P16278); test: Glycosidase activity assay: β-galactosidase; format: biochemical; details: inhibitors tested at 100 μM
T1 construct: endogenous in cells; host or cells: normal human lymphocytes (lysate, 62 μg/ml)
T1 sequence (P16278 29-677): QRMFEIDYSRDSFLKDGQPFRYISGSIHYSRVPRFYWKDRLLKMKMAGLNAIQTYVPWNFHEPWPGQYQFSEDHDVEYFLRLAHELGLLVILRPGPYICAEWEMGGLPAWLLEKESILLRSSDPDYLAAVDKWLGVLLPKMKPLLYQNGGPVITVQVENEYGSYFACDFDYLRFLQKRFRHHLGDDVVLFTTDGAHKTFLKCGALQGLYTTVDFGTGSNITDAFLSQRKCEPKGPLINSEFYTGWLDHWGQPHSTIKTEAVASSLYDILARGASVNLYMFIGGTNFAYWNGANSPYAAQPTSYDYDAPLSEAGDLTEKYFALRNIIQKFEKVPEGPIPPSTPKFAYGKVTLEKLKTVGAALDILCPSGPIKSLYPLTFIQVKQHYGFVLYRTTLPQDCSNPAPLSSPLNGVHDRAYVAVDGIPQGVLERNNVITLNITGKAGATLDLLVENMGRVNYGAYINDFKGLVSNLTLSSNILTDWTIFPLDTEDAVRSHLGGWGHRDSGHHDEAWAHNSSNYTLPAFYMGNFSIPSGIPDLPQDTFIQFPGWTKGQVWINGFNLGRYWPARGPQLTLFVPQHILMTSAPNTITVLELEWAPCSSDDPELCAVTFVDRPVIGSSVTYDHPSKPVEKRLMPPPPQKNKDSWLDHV

[2] = target: T2, α-mannosidase from Jack beans (Canavalia ensiformis, UniProt C0HJB3); test: Glycosidase activity assay: α-mannosidase; format: biochemical; details: inhibitors tested at 100 μM
T2 construct: purchased
T2 sequence (C0HJB3 1-981): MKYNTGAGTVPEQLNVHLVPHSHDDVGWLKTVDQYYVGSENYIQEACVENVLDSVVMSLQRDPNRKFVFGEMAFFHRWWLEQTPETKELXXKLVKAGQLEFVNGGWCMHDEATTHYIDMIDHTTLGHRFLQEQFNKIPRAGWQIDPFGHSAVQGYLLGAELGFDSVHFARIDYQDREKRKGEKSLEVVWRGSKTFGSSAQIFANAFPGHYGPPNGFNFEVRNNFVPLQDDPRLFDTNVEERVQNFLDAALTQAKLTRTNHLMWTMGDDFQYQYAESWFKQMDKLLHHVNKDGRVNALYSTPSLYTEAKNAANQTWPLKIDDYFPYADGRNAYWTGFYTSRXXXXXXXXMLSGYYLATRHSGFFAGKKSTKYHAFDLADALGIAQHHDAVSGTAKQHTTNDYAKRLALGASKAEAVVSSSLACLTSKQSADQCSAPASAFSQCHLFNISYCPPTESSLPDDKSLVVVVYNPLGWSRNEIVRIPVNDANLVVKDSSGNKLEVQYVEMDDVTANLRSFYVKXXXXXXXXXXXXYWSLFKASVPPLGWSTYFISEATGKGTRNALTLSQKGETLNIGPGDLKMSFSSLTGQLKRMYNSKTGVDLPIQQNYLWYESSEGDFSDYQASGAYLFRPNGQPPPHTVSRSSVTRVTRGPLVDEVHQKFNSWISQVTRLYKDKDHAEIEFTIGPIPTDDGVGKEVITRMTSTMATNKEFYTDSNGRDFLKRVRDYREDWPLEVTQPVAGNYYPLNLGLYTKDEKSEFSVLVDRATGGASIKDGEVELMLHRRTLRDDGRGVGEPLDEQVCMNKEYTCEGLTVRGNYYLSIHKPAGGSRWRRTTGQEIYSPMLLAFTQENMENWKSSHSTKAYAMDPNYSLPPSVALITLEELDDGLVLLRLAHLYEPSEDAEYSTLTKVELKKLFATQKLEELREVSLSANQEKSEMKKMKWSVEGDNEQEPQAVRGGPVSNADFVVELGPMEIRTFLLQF

[3] = target: T3, α-galactosidase from coffee beans (Coffea arabica, UniProt Q42656); test: Glycosidase activity assay: α-galactosidase (coffee beans); format: biochemical; details: inhibitors tested at 100 μM
T3 construct: purchased
T3 sequence (Q42656 16-378): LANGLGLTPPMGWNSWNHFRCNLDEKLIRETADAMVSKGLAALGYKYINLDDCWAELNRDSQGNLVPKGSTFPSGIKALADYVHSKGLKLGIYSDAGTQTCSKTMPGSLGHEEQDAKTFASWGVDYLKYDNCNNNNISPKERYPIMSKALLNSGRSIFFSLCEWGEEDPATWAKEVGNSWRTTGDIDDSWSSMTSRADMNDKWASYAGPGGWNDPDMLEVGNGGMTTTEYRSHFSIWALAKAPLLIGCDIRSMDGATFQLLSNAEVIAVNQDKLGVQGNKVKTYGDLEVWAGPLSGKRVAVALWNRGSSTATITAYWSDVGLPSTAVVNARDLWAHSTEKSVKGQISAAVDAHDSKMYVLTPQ

[4] = tested on: Wild-type human lymphocytes (08C0058); test: Cytotoxicity assay using human lymphocytes (alamarBlue); format: cell-based; details: concentration up to 200 μM; data not shown
Procedure: Wild-type human lymphocytes (08C0058) were seeded in 96-well plates at a number of 50,000 cells/well. […] All compounds were dissolved in DMSO or H2O and control experiments were performed with DMSO. Cells were incubated at 37° C. in 5% CO2 for 48-72 h. Then, 10λ alamarBlue was added to cells suspended in medium, and the mixture was incubated for additional 3-5 hrs at 37° C. in 5% CO2.

[5] = target: T4, rh-α-Gal A (recombinant human α-galactosidase A) (Homo sapiens, UniProt P06280); test: biochemical; details: read-out: Inhibition activity (%) rh-α-Gal A
T4 sequence (P06280 32-429): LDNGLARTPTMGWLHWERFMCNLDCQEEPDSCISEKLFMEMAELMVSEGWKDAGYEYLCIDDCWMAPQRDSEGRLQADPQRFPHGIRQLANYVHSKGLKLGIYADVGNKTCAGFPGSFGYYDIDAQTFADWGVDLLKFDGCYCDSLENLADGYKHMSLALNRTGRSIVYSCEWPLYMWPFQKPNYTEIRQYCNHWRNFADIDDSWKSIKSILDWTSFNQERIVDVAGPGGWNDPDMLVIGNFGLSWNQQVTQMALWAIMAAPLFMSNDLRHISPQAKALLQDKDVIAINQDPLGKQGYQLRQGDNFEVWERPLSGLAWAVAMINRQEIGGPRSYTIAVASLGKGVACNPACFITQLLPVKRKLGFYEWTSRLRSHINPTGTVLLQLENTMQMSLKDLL
Procedure: Libraries (20 μL) were diluted to give the final concentration of 20 μM, mixed with substrate 4-methylberiilyl α-D-galactopyranoside (20 μL) and recombinant human alpha-galactosidase (10 μL) in pH 4.6 buffer (50 μL), then assay was carried out at 37° C. for 15 min. […] The control group was a mixture of HBTU, DIEA, acid libraries (in total 20 μL), substrate (20 μL), buffer (50 μL) and enzyme (10 μL) excluded the amide products. Blank was a solution of substrate (20 μL) and enzyme (10 μL) in pH 4.6 buffer (70 μL). Inhibition was performed as relative enzyme activity to control.

In the case of O=C(CCCCC1CCCCC1)NC[C@H]1N[C@H](CO)[C@H](O)[C@@H]1O [Compound 33], the “Inhibition activity (%) β-galactosidase” value [1] is reported as “No inhibition”, the inhibition at 100 µM [2] is reported as 36% and the inhibition at 100 µM [3] is reported as 94%. For the same molecule, the “toxic effect in cell culture” value [4] was “no toxic effect” and the inhibition at 100 µM [5] was 97%.
